According to paper PMC10518717, “High-Throughput Screening and Proteomic Characterization of Compounds Targeting Myeloid-Derived Suppressor Cells” (Molecular & Cellular Proteomics : MCP, 2023):

Assays:
NUP-MDSC cell lysate [1] = assay: Solvent-induced protein precipitation profiling, proteome-wide; assay type: binding, mouse; conditions: for log2 FC cmpd2_26uM/cmpd3_26uM: soluble fraction, 26 uM
Method: (§1) NUP-MDSCs were differentiated as described above, washed twice with PBS, resuspended in lysis buffer (PBS, 0.4% IGEPAL CA-630, 1× Halt Protease-Inhibitor Cocktail (Thermo Fisher Scientific)), and subjected to three freeze-thaw cycles. The lysate was cleared by centrifugation for 30 min at 18,000g and 4 °C. The soluble fraction was diluted to 4 mg/ml and allowed to warm up to room temperature. Equal volumes of lysate were treated in triplicates with 100 x compound stock solutions (in DMSO) or DMSO for 15 min at room temperature (final concentrations: cmpd 2: 7.8 μM (3xEC50) and 26 μM (10xEC50), cmpd 3: 10 μM and 26 μM). Similar to a previous study ([46]), each sample was divided into eight aliquots to be denatured using different concentrations (8%, 10%, 12%, 14%, 16%, 18%, 20%, 22%) of acetone:ethanol:acetic acid (50:50:0.1) in water for 20 min at 37 °C with vigorous shaking. Aggregated proteins were separated by centrifugation for 45 min at 4 °C and 3900g. Next, equal amounts of the soluble fraction were pooled for subsequent proteomic analysis.
(§2) Methanol was added to 100 μg of the pooled supernatants to a final concentration of 70% and further processed according to the R2P1 protocol ([47]), with tryptic digestion performed in 50 mM Hepes (pH 8.5). Elution fractions were combined and dried by vacuum centrifugation. Dried samples were resuspended in deionized water, and TMT labeling was performed according to Zecha et al. ([35]). All 15 samples (5 treatment conditions in triplicates) were labeled with one TMTpro plex. Next, equal amounts were pooled and desalted by C18 solid-phase extraction cartridges (Sep-Pak Vac 1 cc C18 Cartridges, Waters Corp). Desalted peptides were chromatographically separated via basic reversed phase chromatography as previously described ([36]) into 24 fractions, dried down, and stored at −20 °C until further analysis.
(§3) Peptides were analyzed via LC-MS/MS on a Vanquish Neo UHPLC coupled to an Orbitrap Eclipse Tribrid mass spectrometer (Thermo Fisher Scientific). […] The mass spectrometer was operated in data-dependent mode and positive ionization mode. Samples were measured, employing a MS3 method with real-time search. […] Iontrap-MS2 spectra for peptide identification were acquired using HCD fragmentation with 35% NCE, an isolation window of 0.7 m/z, an AGC target value of 5e4 charges, and a maxIT of 35 ms. To obtain quantitative information on TMT reporter ions, each peptide precursor was fragmented again as for MS2 analysis followed by synchronous selection of the up to 10 most intense peptide fragments in the iontrap ([37]) and further fragmentation via HCD using an NCE of 55%. For the MS3 scan, real-time search was enabled to only trigger a MS3 scan for peptides that are TMT-labeled and can be identified (searched against a mouse database, same as used for maxquant processing). The MS3 scan was recorded in the OT at 30,000 resolution (scan range 110–500 m/z, isolation window of 0.7 m/z, AGC of 2e4 charges, maxIT of 120 ms). The cycle time was set to 3 s, and the dynamic exclusion lasted for 60 s.
(§4) Raw files were searched with Maxquant (v. 2.0.3.0) against the mouse reference proteome (UP000000589, canonical, download 10/2019, 55,029 entries) with standard settings for reporter ion MS3 unless described otherwise ([39]). Isotope impurities of the TMT lot were specified to allow MaxQuant the automated correction of TMT intensities. […] Trypsin/P was specified as the proteolytic enzyme with up to two missed cleavage sites allowed. […]

NUP-MDSC cell lysate [2] = target: T1, NUP-MDSC cell lysate (Mus musculus, UniProt P59644); assay: as above; assay type: binding; conditions: protein Inpp5j; soluble fraction; 26 uM
T1 construct: endogenous in cells; host or cells: mouse NUP-MDSC (lysate)
T1 sequence (P59644 1-1003): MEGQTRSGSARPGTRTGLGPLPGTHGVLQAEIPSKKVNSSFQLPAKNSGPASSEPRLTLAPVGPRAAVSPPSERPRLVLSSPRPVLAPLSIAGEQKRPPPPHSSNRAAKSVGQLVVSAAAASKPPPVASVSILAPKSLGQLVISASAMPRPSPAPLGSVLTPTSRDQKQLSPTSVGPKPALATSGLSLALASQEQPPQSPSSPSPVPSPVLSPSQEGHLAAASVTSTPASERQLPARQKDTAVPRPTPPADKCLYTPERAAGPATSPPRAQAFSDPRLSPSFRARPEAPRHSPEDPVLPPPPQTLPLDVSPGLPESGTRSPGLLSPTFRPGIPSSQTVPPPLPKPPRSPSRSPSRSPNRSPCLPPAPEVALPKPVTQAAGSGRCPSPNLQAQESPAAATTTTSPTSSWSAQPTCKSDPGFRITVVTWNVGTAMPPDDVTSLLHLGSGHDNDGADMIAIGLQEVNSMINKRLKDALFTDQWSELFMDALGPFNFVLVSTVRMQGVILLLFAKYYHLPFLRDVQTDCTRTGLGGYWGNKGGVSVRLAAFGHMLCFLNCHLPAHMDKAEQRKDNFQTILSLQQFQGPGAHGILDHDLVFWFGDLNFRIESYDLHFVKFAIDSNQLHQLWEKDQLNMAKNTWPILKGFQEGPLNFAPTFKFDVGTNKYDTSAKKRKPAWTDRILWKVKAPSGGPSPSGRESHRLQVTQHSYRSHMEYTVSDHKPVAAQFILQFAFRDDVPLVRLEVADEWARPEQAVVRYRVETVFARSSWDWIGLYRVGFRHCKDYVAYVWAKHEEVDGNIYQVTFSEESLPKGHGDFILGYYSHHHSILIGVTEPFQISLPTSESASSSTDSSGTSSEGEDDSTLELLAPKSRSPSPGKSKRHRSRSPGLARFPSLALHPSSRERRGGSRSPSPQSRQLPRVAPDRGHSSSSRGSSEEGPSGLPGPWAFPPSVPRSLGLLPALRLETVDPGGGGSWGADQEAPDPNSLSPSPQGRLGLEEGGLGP
Method: as §1, §2, §3, §4

log2 FC cmpd2_26uM/cmpd3_26uM (NUP-MDSC cell lysate [2]): 0.07
Structure (SMILES): CCOC(=O)c1nnn(-c2nn3nnnc3c3ccccc23)c1C [compound 2]
stabilization of proteins against solvent-induced aggregation (NUP-MDSC cell lysate [1]; 7.8 μM and 26 μM, vs compound 3): significant stabilization of several proteins
log2 FC cmpd2_26uM/cmpd3_26uM (NUP-MDSC cell lysate [1]; protein Magohb;Magoh): 0.25
log2 FC cmpd2_26uM/cmpd3_26uM (NUP-MDSC cell lysate [1]; protein Srcap): -0.12
